What was measured:
[1] = type: in vivo, cats
Protocol: In vivo use of preparations of the invention as antiacidotic agents. […] The recovery of the pH to the normal value follows roughly an exponential course with a time constant of 1-3 minutes. […] Results are given in the appended Figure II.

[2] = Titration of rat gastric juice with antacid solutions; type: physicochemical; conditions: aqueous solutions: sodium bicarbonate 150 mM, NMG 150 mM, NMGP 20 mg/cc
Text: Results are given in the appended Figure III.

[3] = Plasma concentration of various components after i.v. administration of NMG; type: in vivo; conditions: cat

## CNC[C@H](O)[C@@H](O)[C@H](O)[C@H](O)CO [NMG, 1-deoxy-1-(methylamino)-D-glucitol]
[1]; artificially ventilated cats, 1cc/Kg of 300 mM
  urine pH: Parallel increase
[1]; artificially ventilated cats, 1cc/Kg of 300 mM isotonic solution
  partial pressure of CO₂ (P CO2): clear decrease
[1]; artificially ventilated cats, 1cc/Kg of 300 mM, roughly exponential course
  time constant of recovery of the pH to the normal value: 1-3 minutes
[1]; artificially ventilated cats, rapid (about 15 sec.) administration of 1cc/Kg of 300 mM isotonic solution, immediate elevation from about 7.4
  blood pH: ~7.9
[1]; in vivo
  effect on respiration: no significant effect
[1]; in vivo, iv
  effects in the vein through which the solution was administered: No gross deleterious effects
[2]
  antacid potency in titration of gastric juice: more potent than sodium bicarbonate
[3]; 1 min. after i.v. NMG 0.3 mmol/kg (before: 4.2)
  Plasma concentration Potassium: 4200 µM
[3]; 1 min. after i.v. NMG 0.3 mmol/kg (before: 7)
  Plasma concentration Urea: 6900 µM
[3]; 1 min. after i.v. NMG 0.3 mmol/kg (before: 113)
  Plasma concentration Chloride: 112000 µM
[3]; 1 min. after i.v. NMG 0.3 mmol/kg (before: 142)
  Plasma concentration Sodium: 145000 µM
[3]; 30 min. after i.v. NMG 0.3 mmol/kg (before: 4.2)
  Plasma concentration Potassium: 4200 µM
[3]; 30 min. after i.v. NMG 0.3 mmol/kg (before: 7)
  Plasma concentration Urea: 6800 µM
[3]; 30 min. after i.v. NMG 0.3 mmol/kg (before: 113)
  Plasma concentration Chloride: 113000 µM
[3]; 30 min. after i.v. NMG 0.3 mmol/kg (before: 142)
  Plasma concentration Sodium: 144000 µM
[3]; 120 min. after i.v. NMG 0.3 mmol/kg (before: 4.2)
  Plasma concentration Potassium: 4200 µM
[3]; 120 min. after i.v. NMG 0.3 mmol/kg (before: 7)
  Plasma concentration Urea: 6600 µM
[3]; 120 min. after i.v. NMG 0.3 mmol/kg (before: 113)
  Plasma concentration Chloride: 116000 µM
[3]; 120 min. after i.v. NMG 0.3 mmol/kg (before: 142)
  Plasma concentration Sodium: 147000 µM
